Columns and labels:
[1] = system: ATXN3-Q75-GFP SH-SY5Y cells; test: Confocal microscopy of LC3 puncta, ATXN3-Q75 aggregates and P62 colocalization; format: cell-based, human; conditions: compound 10 μM, range over trehalose and the four compounds; for Colocalization coefficient of ATXN3-Q75-GFP with LC3 puncta: untreated 0.014; for Colocalization coefficient of LC3 with P62: untreated 0.21; for LC3 puncta per cell: untreated induced 2.7
Method: ATXN3-Q75-GFP SY5Y cells were seeded onto 12-well plates (1 × 10^5/well) containing poly-L-lysine-coated coverslip on day 1; treated with retinoic acid, test compounds, and doxycycline on day 2; and fixed, permeabilized, and blocked on day 8, as described. The primary anti-LC3 antibody (1:1000; Cell Signaling #83506, Danvers, MA, USA) or anti-P62 antibody (1:1500; Cell Signaling #5114) was used to stain cells at 4 °C overnight. After washing with PBS containing 0.1% Tween 20 (PBST), cells were incubated for 2 h at room temperature with Cy5-conjugated (1:1000, Jackson ImmunoResearch 715-175-150) or Alexa Fluor 555-conjugated (1:500; Invitrogen #A-31572) secondary antibody, and washed three times with PBST. Nuclei were detected using DAPI (0.1 μg/mL; Sigma-Aldrich). The stained cells on coverslips were mounted onto microscope slides with Vectashield antifade mounting medium (Vector Laboratories, Newark, CA, USA) and examined using a Zeiss LSM880 confocal microscope (Carl Zeiss AG, Oberkochen, Baden-Württemberg, Germany). Cell images were acquired at excitation/emission wavelengths of 649/666 nm, 482/536 nm, 555/582 nm, and 385/461 nm for stained LC3 puncta, aggregates, P62, and nuclei, respectively. For colocalization, 300 cells from three independent experiments were analyzed and quantified for the proportion of pixels that LC3 (red) colocalized with P62 (yellow) using Mander’s overlap coefficient (MOC) in ZEN software version 2.1 (Carl Zeiss AG).

[2] = system: human ATXN3-Q75-GFP SH-SY5Y cells; test: MTT compound cytotoxicity assay; format: cell-based; conditions: 0.1–100 μM compound, viability analyzed the next day, n = 3
Method: For the compound cytotoxicity assay, ATXN3-Q75-GFP SY5Y cells (2 × 10^4) were plated into 96-well dishes, grown for 20 h, and treated with 0.1–100 μM test compounds. After 1 day, 3-(4,5-dimethylthiazol-2-yl)-2,5-diphenyltetrazolium bromide (MTT, 5 mg/mL) (Sigma-Aldrich, St. Louis, MO, USA) was added to the cells and incubated for 3 h at 37 °C. Lysis buffer (10% Triton X-100, 0.1 N HCl, 18% isopropanol) was then added to dissolve the insoluble formazan crystals. The absorbance of the purple-colored solution was measured at optical density (OD) 570 nm by using a FLx800 fluorescence microplate spectrophotometer (Bio-Tek, Winooski, VT, USA). The half-maximal inhibitory concentration (IC50) was calculated through the construction of a dose–response curve.

O=C(c1ccccc1)c1cc2c(O)cccc2oc1=O [LM-031]
Colocalization coefficient of ATXN3-Q75-GFP with LC3 puncta [1]: 0.025–0.030
Colocalization coefficient of LC3 with P62 [1]: 0.26–0.29
LC3 puncta per cell [1]: 4.6–6.7

CC(=O)/C(=C\c1ccccc1[N+](=O)[O-])Cc1c[nH]c2ccccc12 [NC009-1]
Colocalization coefficient of ATXN3-Q75-GFP with LC3 puncta [1]: 0.025–0.030
Colocalization coefficient of LC3 with P62 [1]: 0.26–0.29
LC3 puncta per cell [1]: 4.6–6.7
IC50 [2]: > 100 µM

CC(=O)/C(=C\c1ccccc1[N+](=O)[O-])Cc1c(C)[nH]c2ccccc12 [NC009-2]
Colocalization coefficient of ATXN3-Q75-GFP with LC3 puncta [1]: 0.025–0.030
Colocalization coefficient of LC3 with P62 [1]: 0.26–0.29
LC3 puncta per cell [1]: 4.6–6.7
IC50 [2]: > 100 µM

— PMC11477298, “Small Molecules Inducing Autophagic Degradation of Expanded Polyglutamine Protein through Interaction with Both Mutant ATXN3 and LC3” (International Journal of Molecular Sciences, 2024)
